According to ChEMBL document CHEMBL3352676, “Terpenoids from the root bark of Pterolobium macropterum” (J Nat Prod, 2014):
Calls of active or inactive are those of the source. The rule behind the calls is not given here.

What was measured:
[1] = tested on: Vero; assay: Cytotoxicity against african green monkey Vero cells assessed as growth inhibition after 72 hrs by sulforhodamine B assay; conditions: Chlorocebus sabaeus
[2] = Cytotoxicity against human KKU-M156 cells assessed as growth inhibition after 72 hrs by sulforhodamine B assay; conditions: KKU-M156, 72 h
[3] = tested on: KKU-M213; assay: Cytotoxicity against human KKU-M213 cells assessed as growth inhibition at > 200 uM after 72 hrs by sulforhodamine B assay
[4] = Cytotoxicity against human KKU-M139 cells assessed as growth inhibition after 72 hrs by sulforhodamine B assay; conditions: KKU-M139, 72 h
[5] = tested on: KKU-M156; assay: Cytotoxicity against human KKU-M156 cells assessed as growth inhibition at > 200 uM after 72 hrs by sulforhodamine B assay
[6] = Cytotoxicity against human KKU-M213 cells assessed as growth inhibition after 72 hrs by sulforhodamine B assay; conditions: KKU-M213, 72 h
[7] = tested on: KKU-M139; assay: Cytotoxicity against human KKU-M139 cells assessed as growth inhibition at > 200 uM after 72 hrs by sulforhodamine B assay
[8] = tested on: Vero; assay: Cytotoxicity against african green monkey Vero cells assessed as growth inhibition at > 200 uM after 72 hrs by sulforhodamine B assay; conditions: Chlorocebus sabaeus

| SMILES | IC50 [1] [µM] | IC50 [2] [µM] | inhibition [3] | IC50 [4] [µM] | inhibition [5] | IC50 [6] [µM] | inhibition [7] | Activity [8] |
| --- | --- | --- | --- | --- | --- | --- | --- | --- |
| CC(C)[C@]1(O)CC[C@@H](C)[C@@H]2CCC(=O)C=C21 | 154 | 139 | inactive | 148 |  |  |  |  |
| COC(=O)[C@]1(C)CCC[C@@]2(C)[C@H]1CC[C@H]1[C@@H](C)C3=CC(=O)OC3=C[C@@H]12 | 94.4 |  |  |  | inactive | 47.6 | inactive |  |
| COC(=O)[C@]1(C)CCC[C@@]2(C)[C@H]1CC[C@H]1[C@@H](C)C3=CC(=O)O[C@]3(O)C[C@@H]12 | 59.2 | 61.2 |  | 76.3 |  | 44 |  |  |
| CC(C)[C@@H]1CC[C@@H](C)[C@@H]2CCC(=O)C=C12 | 154 | 88.8 |  | 70.8 |  | 87.3 |  |  |
| Cc1c2ccncc2c(C)c2c1[nH]c1ccccc12 [ELLIPTECINE] | 15.5 | 37.9 |  | 18.3 |  | 6.58 |  |  |
| COC(=O)[C@]1(C)CCC[C@@]2(C)[C@H]1CC[C@H]1C(=O)c3ccoc3C[C@@H]12 |  | 148 |  | 23.2 |  | 34.8 |  | Non-toxic |
| COC(=O)[C@]1(C)CC[C@@H](OC(C)=O)[C@]2(C)c3cc4occc4c(C)c3C[C@@H](O)[C@H]21 |  | 115 |  | 155 |  | 98.2 |  | Non-toxic |
| CC1=C2CC3CC[C@@H](C)C2(CC1=O)C3(C)C (stereo partly specified) |  |  |  |  | inactive | 138 | inactive | Non-toxic |
| C[C@H]1C2=CC(=O)O[C@]2(O)C[C@H]2[C@H]1CC[C@@H]1[C@]2(C)CCC[C@@]1(C)C(=O)O [DIPTERYXIC ACID] | 97.1 | 82.9 |  | 77.3 |  | 68.9 |  |  |
| COC(=O)[C@]1(C)CCC[C@]2(C)c3cc4occc4c(C)c3CC[C@@H]12 | 57.6 | 80.1 |  | 70.6 |  | 144 |  |  |
| CC(C)[C@@H]1CC[C@@H](C)[C@@H]2CCC(C=O)=C[C@@]12O |  |  |  |  | inactive | 88.8 | inactive | Non-toxic |
| COC(=O)[C@]1(C)CCC[C@@]2(C)[C@H]1CC[C@H]1C(C)=CC(=O)C[C@@H]12 | 50.5 |  |  | 197 | inactive | 66.8 |  |  |
| COC(=O)[C@]1(C)CCC[C@]2(C)c3cc4occc4c(C)c3C[C@@H](O)[C@@H]12 |  | 113 |  | 122 |  | 105 |  | Non-toxic |
| COC(=O)C1(C(=O)OC)CCC[C@]2(C)c3cc4occc4c(C)c3CC[C@@H]12 | 65.7 | 83.6 |  | 80.2 |  | 44.2 |  |  |
